Experimental data published in ChEMBL document CHEMBL1201862, “PubChem BioAssay data set” (2004).
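Dose response: 5 concentrations. Exposure: 48 h. Format: 96-well plates. Endpoint: linear interpolation; highest concentration if not reached. Here, GI50 denotes the concentration required for 50% inhibition of growth.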 The source made the active and inactive calls. No stated cut-off is given here; in the data, active = GI50 up to about 1.1 µM and inactive = higher.

Assays:
Experiment in all cases: NCI tumour cell line growth inhibition, 48 h
[1] = test system: DLD-1
[2] = test system: HCT-15
[3] = test system: HOP-18
[4] = test system: LXFL 529
[5] = test system: M19-MEL
[6] = test system: OVCAR-8
[7] = test system: SF-295
[8] = test system: SF-539
[9] = test system: SK-MEL-28
[10] = test system: SK-MEL-2
[11] = test system: SNB-19
[12] = test system: SNB-78
[13] = test system: U-251
[14] = test system: UACC-257
[15] = test system: XF498
[16] = test system: DMS-273
[17] = test system: MCF7
[18] = test system: NCI/ADR-RES

Row | Structure (SMILES) | GI50 [1] | GI50 [2] | GI50 [3] | GI50 [4] | GI50 [5] | GI50 [6] | GI50 [7] | GI50 [8] | GI50 [9] | GI50 [10] | GI50 [11] | GI50 [12] | GI50 [13] | GI50 [14] | GI50 [15] | GI50 [16] | GI50 [17] | GI50 [18]
1 | CC(=O)OC1/C=C(\C)C(OC(C)=O)C/C=C(/C)CCC2C(/C=C/C1=O)C2(C)C (stereo not given) | > 100 µM (inactive) | > 100 µM | > 100 µM (inactive) | > 100 µM (inactive) | > 100 µM (inactive) | > 100 µM (inactive) | 91 µM (inactive) | > 100 µM (inactive) | > 100 µM (inactive) | > 100 µM (inactive) | > 100 µM (inactive) | > 100 µM (inactive) | > 100 µM (inactive) | > 100 µM (inactive) | 35.7 µM (inactive) |  |  | 
2 | S=P1(N2CCCCC2)Oc2ccc3ccccc3c2-c2c(ccc3ccccc23)O1 | 91.2 µM (inactive) | 63.7 µM | > 71.8 µM (inactive) |  | 71 µM (inactive) | 64.4 µM (inactive) | 53.7 µM (inactive) | 71.1 µM (inactive) | > 100 µM (inactive) | 31.6 µM (inactive) | > 100 µM (inactive) | 71.4 µM (inactive) | > 65.2 µM (inactive) | > 100 µM (inactive) | 56.9 µM (inactive) | > 80.2 µM (inactive) | > 85.3 µM (inactive) | > 51.2 µM (inactive)
3 | CSc1nc2nc(C)c(C)nc2c(=O)[nH]1 | > 100 µM (inactive) | > 100 µM | > 100 µM (inactive) | > 100 µM (inactive) | > 100 µM (inactive) | > 100 µM (inactive) | > 100 µM (inactive) |  | > 100 µM (inactive) | > 100 µM (inactive) | > 100 µM (inactive) |  | > 100 µM (inactive) | > 100 µM (inactive) | > 100 µM (inactive) | > 100 µM (inactive) |  | 
4 | O=C1CCC2COc3ccc(O)c1c32 (stereo not given) |  | > 100 µM | > 100 µM (inactive) | > 100 µM (inactive) | > 100 µM (inactive) | > 100 µM (inactive) | > 100 µM (inactive) | > 100 µM (inactive) | > 100 µM (inactive) |  | 24.1 µM (inactive) | > 100 µM (inactive) | > 100 µM (inactive) | > 100 µM (inactive) | > 100 µM (inactive) | > 100 µM (inactive) |  | 
5 | O=C1N(C2CCCCC2)CC12CCCCC2 |  | > 100 µM | 94.6 µM (inactive) |  | > 100 µM (inactive) | > 100 µM (inactive) |  | > 100 µM (inactive) | > 100 µM (inactive) | > 100 µM (inactive) | > 100 µM (inactive) | > 100 µM (inactive) | > 100 µM (inactive) |  | > 100 µM (inactive) | > 100 µM (inactive) |  | 
6 | COc1ccc2c(c1)OCCC1=C2SCC2(C)CCN=C12 (stereo not given) | > 100 µM (inactive) |  | 48.3 µM (inactive) | > 100 µM (inactive) |  | > 100 µM (inactive) | > 100 µM (inactive) | > 100 µM (inactive) | > 100 µM (inactive) |  | > 100 µM (inactive) | > 100 µM (inactive) | > 100 µM (inactive) |  | > 100 µM (inactive) | > 100 µM (inactive) |  | 
7 | CCC1=CCN(c2ccc(C)cc2)OC1c1ccc(OC)cc1 (stereo not given) | 58.1 µM (inactive) | 47 µM |  | 62.4 µM (inactive) | 42.7 µM (inactive) | > 100 µM (inactive) | 92.7 µM (inactive) | > 100 µM (inactive) | 50.2 µM (inactive) | 32.3 µM (inactive) | > 100 µM (inactive) | > 100 µM (inactive) | 73.3 µM (inactive) | 37 µM (inactive) | 46.6 µM (inactive) | 69.8 µM (inactive) |  | 
8 | O=C(O)CNS(=O)(=O)c1ccc(NC(=O)c2ccc(F)cc2)cc1 | > 100 µM (inactive) | > 100 µM | > 100 µM (inactive) | > 100 µM (inactive) | > 100 µM (inactive) | > 100 µM (inactive) | > 100 µM (inactive) | > 100 µM (inactive) | > 100 µM (inactive) | > 100 µM (inactive) | > 100 µM (inactive) |  | > 100 µM (inactive) | > 100 µM (inactive) | > 100 µM (inactive) | > 100 µM (inactive) |  | 
9 | C(=C/c1nc2ccccc2o1)/c1ccc2c(c1)OCO2 | 5.74 µM (inactive) | 8.18 µM | 5.21 µM (inactive) |  | 21.2 µM (inactive) | 29.7 µM (inactive) | 8.04 µM (inactive) | 16.6 µM (inactive) | 24.9 µM (inactive) | 8.34 µM (inactive) | 16.1 µM (inactive) | 25.7 µM (inactive) | 17.5 µM (inactive) | 12.7 µM (inactive) | 20.5 µM (inactive) | 4.56 µM (inactive) | 14.5 µM (inactive) | 14.1 µM (inactive)
10 | COc1ccc(OCC(C)(C)O)cc1 | > 100 µM (inactive) | > 100 µM | > 100 µM (inactive) |  |  | > 100 µM (inactive) | > 100 µM (inactive) | > 100 µM (inactive) | > 100 µM (inactive) | > 100 µM (inactive) | > 100 µM (inactive) | > 100 µM (inactive) | > 100 µM (inactive) | > 100 µM (inactive) | > 100 µM (inactive) | > 100 µM (inactive) | > 45.3 µM (inactive) | > 100 µM (inactive)
11 | C(=C\c1csnn1)/c1cccnc1 | > 100 µM (inactive) | > 100 µM | > 100 µM (inactive) | 75.7 µM (inactive) | > 100 µM (inactive) | > 100 µM (inactive) | > 100 µM (inactive) | > 100 µM (inactive) | > 100 µM (inactive) | > 100 µM (inactive) | > 100 µM (inactive) | > 100 µM (inactive) | > 100 µM (inactive) | > 100 µM (inactive) | > 100 µM (inactive) |  |  | 
12 | C=C1COC(/C=C(\C)CC/C=C(\C)CCl)C1 (stereo not given) | > 100 µM (inactive) | > 100 µM |  | > 100 µM (inactive) | > 100 µM (inactive) | > 100 µM (inactive) | > 100 µM (inactive) | > 100 µM (inactive) | > 100 µM (inactive) | > 100 µM (inactive) | > 100 µM (inactive) | > 100 µM (inactive) | > 100 µM (inactive) |  | > 100 µM (inactive) | > 100 µM (inactive) |  | 
13 | CCOc1ccc(NC(=O)C(=O)CC(=O)c2c(C)[n+]([O-])c3ccccc3[n+]2[O-])cc1 |  | > 100 µM | 24.9 µM (inactive) | > 100 µM (inactive) | > 100 µM (inactive) | > 100 µM (inactive) | > 100 µM (inactive) | > 100 µM (inactive) | > 100 µM (inactive) | > 100 µM (inactive) | > 100 µM (inactive) | > 100 µM (inactive) | > 100 µM (inactive) | > 100 µM (inactive) | 59.8 µM (inactive) | > 100 µM (inactive) |  | 
14 | COC(=O)c1cc2c(s1)C(=O)c1ccccc1-2 | > 100 µM (inactive) | > 100 µM | > 100 µM (inactive) | > 100 µM (inactive) | > 100 µM (inactive) | > 100 µM (inactive) | > 100 µM (inactive) | > 100 µM (inactive) | > 100 µM (inactive) | > 100 µM (inactive) | > 100 µM (inactive) | > 100 µM (inactive) | > 100 µM (inactive) | > 100 µM (inactive) |  | > 100 µM (inactive) |  | 
15 | COC(=O)c1ccc(NC(=O)c2cc(OC)c(OC)c(OC)c2)cc1 | 4.69 µM (inactive) | 1.08 µM | 49.4 µM (inactive) | 1.64 µM (inactive) | 1.04 µM (active) | 12.2 µM (inactive) | 0.8 µM (active) | 1.21 µM (inactive) | 0.798 µM (active) | 0.798 µM (active) | 1 µM (active) |  | 0.236 µM (active) | 0.0215 µM (active) |  | 0.327 µM (active) |  | 
16 | CC(C)C(=O)/C=C/c1ccc(Br)cc1 | 7.31 µM (inactive) |  |  | 16.1 µM (inactive) | 15.4 µM (inactive) | 23.2 µM (inactive) | 15.5 µM (inactive) | 21.1 µM (inactive) | 20.1 µM (inactive) | 16.1 µM (inactive) | 16 µM (inactive) | 27 µM (inactive) | 10.9 µM (inactive) | 16.5 µM (inactive) | 16.8 µM (inactive) | 12.9 µM (inactive) |  | 
17 | Cc1ccc(N2Cc3c(ccc4ccccc34)OP2(=O)Oc2ccc(Cl)c(C)c2)cc1 (stereo not given) | > 41.8 µM (inactive) | 13.8 µM | > 61.1 µM (inactive) |  | > 100 µM (inactive) | > 100 µM (inactive) | > 51.2 µM (inactive) | > 100 µM (inactive) | > 100 µM (inactive) | > 100 µM (inactive) | > 100 µM (inactive) | > 100 µM (inactive) | > 100 µM (inactive) | > 100 µM (inactive) | > 100 µM (inactive) | > 77.8 µM (inactive) | 18.4 µM (inactive) | > 78.7 µM (inactive)
18 | CCC1=C(C(C)=O)[C@@H]2CCCCC(C(=O)OC)[C@@H]2C1=O (stereo not given in full) | > 100 µM (inactive) | > 100 µM | 47 µM (inactive) | > 100 µM (inactive) | 79.4 µM (inactive) | > 100 µM (inactive) | > 100 µM (inactive) | > 100 µM (inactive) | > 100 µM (inactive) | > 100 µM (inactive) | > 100 µM (inactive) | > 100 µM (inactive) | > 100 µM (inactive) | > 100 µM (inactive) |  | > 100 µM (inactive) |  | 
19 | C=C1C(=O)O[C@@H]2C[C@@]3(C)[C@H](O)CCC(=C)[C@@H]3C[C@H]12 [ASPERILIN] | 3.69 µM (inactive) | 11.3 µM |  | 2.75 µM (inactive) | 6.68 µM (inactive) | 7.24 µM (inactive) | 14.1 µM (inactive) | 11 µM (inactive) | 7.59 µM (inactive) | 11.6 µM (inactive) | 18.7 µM (inactive) | 6.04 µM (inactive) | 13.4 µM (inactive) |  | 2.59 µM (inactive) | 8.38 µM (inactive) |  | 
